Columns and labels:
OVCAR-8 = assay: cells; conditions: Homo sapiens, OVCAR-8, 48 h; for CC50: read-out: LC50
SR = assay: cells; conditions: Homo sapiens, 48 h; for CC50: read-out: LC50
NCI-H522 = assay: cells; conditions: Homo sapiens, NCI-H522, 48 h; for CC50: read-out: LC50
RPMI-8226 = assay: cells; conditions: Homo sapiens, RPMI-8226, 48 h; for CC50: read-out: LC50
SF-539 = assay: cells; conditions: Homo sapiens, SF-539, 48 h; for CC50: read-out: LC50, SF-539, 48 h
SNB-75 = assay: cells; conditions: Homo sapiens, SNB-75, 48 h; for CC50: read-out: LC50
SNB-19 = assay: cells; conditions: Homo sapiens, SNB-19, 48 h; for CC50: read-out: LC50
NCI-H322M = assay: cells; conditions: Homo sapiens, 48 h; for CC50: read-out: LC50
MDA-MB-435 = assay: cells; conditions: Homo sapiens, MDA-MB-435, 48 h; for CC50: read-out: LC50
DU-145 = assay: cells; conditions: Homo sapiens, DU-145, 48 h; for CC50: read-out: LC50
HL-60(TB) = assay: cells; conditions: Homo sapiens, HL-60, 48 h; for CC50: read-out: LC50
M14 = assay: cells; conditions: Homo sapiens, M14, 48 h; for CC50: read-out: LC50
UACC-62 = assay: cells; conditions: Homo sapiens, UACC-62, 48 h; for CC50: read-out: LC50
BT-549 = assay: cells; conditions: Homo sapiens, BT-549, 48 h; for CC50: read-out: LC50
TK-10 = assay: cells; conditions: Homo sapiens, TK-10, 48 h; for CC50: read-out: LC50
SN12C = assay: cells; conditions: Homo sapiens, 48 h; for CC50: read-out: LC50
HS 578T = assay: cells; conditions: Homo sapiens, 48 h; for CC50: read-out: LC50
NCI-H226 = assay: cells; conditions: Homo sapiens, NCI-H226, 48 h; for CC50: read-out: LC50
MDA-MB-468 = assay: cells; conditions: Homo sapiens, MDA-MB-468, 48 h; for CC50: read-out: LC50
NCI/ADR-RES = assay: cells; conditions: Homo sapiens, 48 h; for CC50: read-out: LC50
60 cancer cell lines = assay: NCI-60 one-dose screen (10 μM); type: cell-based; conditions: Homo sapiens; one dose of 10 μM, mean over 60 cancer cell lines; read-out: Mean Growth Percent (MGP)
Text: Additionally, the mean of the growth percentages (MGP) of each compound against all the 60 cancer cell lines is also reported, which is used as one of the selection criteria to continue with tests at five concentration doses.

MCF7 = assay: cells; conditions: Homo sapiens, MCF7, 48 h; for CC50: read-out: LC50
UACC-257 = assay: cells; conditions: Homo sapiens, UACC-257, 48 h; for CC50: read-out: LC50
OVCAR-4 = assay: cells; conditions: Homo sapiens, OVCAR-4, 48 h; for CC50: read-out: LC50

`COc1cc(/C=C/C(=O)c2ccc(C)cc2)ccc1Oc1nc(Nc2ccc(F)cc2)nc(N(C)C)n1` [21b] was tested, and the GI50 (OVCAR-8) was 7.19 µM, the CC50 (OVCAR-8) was > 100 µM and the GI50 (SR) was 3.25 µM. For the same compound, the CC50 (SR) was > 100 µM, the GI50 (NCI-H522) was 9.76 µM and the CC50 (NCI-H522) was > 100 µM. For the same compound, the GI50 (RPMI-8226) was 3 µM, the CC50 (RPMI-8226) was > 100 µM and the GI50 (SF-539) was 7.64 µM. The CC50 (SF-539) was 44.9 µM, the GI50 (SNB-75) was 15.4 µM and the CC50 (SNB-75) was > 100 µM. The GI50 (SNB-19) was 11.1 µM, the CC50 (SNB-19) was 67.3 µM and the GI50 (NCI-H322M) was 51.9 µM. The CC50 (NCI-H322M) was > 100 µM, the GI50 (MDA-MB-435) was 11.4 µM and the CC50 (MDA-MB-435) was 70.4 µM. The GI50 (DU-145) was 25.8 µM, the CC50 (DU-145) was > 100 µM and the GI50 (HL-60(TB)) was 19.1 µM. The CC50 (HL-60(TB)) was > 100 µM, the GI50 (M14) was 14.7 µM and the CC50 (M14) was > 100 µM. The GI50 (UACC-62) was 10.1 µM, the CC50 (UACC-62) was > 100 µM and the GI50 (BT-549) was 6.27 µM. The CC50 (BT-549) was 91.3 µM, the GI50 (TK-10) was 18.2 µM and the CC50 (TK-10) was > 100 µM. For the same compound, the GI50 (SN12C) was 3.89 µM, the CC50 (SN12C) was 73 µM and the GI50 (HS 578T) was 7.24 µM. For the same compound, the CC50 (HS 578T) was > 100 µM, the GI50 (NCI-H226) was 5.22 µM and the CC50 (NCI-H226) was 49.1 µM. For the same compound, the GI50 (MDA-MB-468) was 4.64 µM, the CC50 (MDA-MB-468) was > 100 µM and the GI50 (NCI/ADR-RES) was 5.97 µM. The CC50 (NCI/ADR-RES) was > 100 µM, the activity at 10 µM (60 cancer cell lines) was 39% and the GI50 (MCF7) was 3.57 µM. For the same compound, the CC50 (MCF7) was > 100 µM, the GI50 (UACC-257) was 8.76 µM and the CC50 (UACC-257) was > 100 µM. For the same compound, the GI50 (OVCAR-4) was 7.94 µM and the CC50 (OVCAR-4) was > 100 µM.

Compound `Nc1nc(N)c2c(n1)NC(c1ccc(Cl)cc1)CC(c1ccc(Nc3nc(NCCO)nc(Nc4ccc(Cl)cc4)n3)cc1)=N2` (stereo not shown) [33e] has a GI50 (OVCAR-8) of 1.57 µM, a CC50 (OVCAR-8) of 6.81 µM and a GI50 (SR) of 0.91 µM. For the same compound, the CC50 (SR) was > 100 µM, the GI50 (NCI-H522) was 1.56 µM and the CC50 (NCI-H522) was 6.41 µM. The GI50 (RPMI-8226) was 1.44 µM, the GI50 (SF-539) was 1.68 µM and the CC50 (SF-539) was 6.56 µM. It also gave a GI50 (SNB-75) of 1.59 µM, a CC50 (SNB-75) of 9.94 µM and a GI50 (SNB-19) of 1.99 µM. For the same compound, the CC50 (SNB-19) was 21.4 µM, the GI50 (NCI-H322M) was 2.02 µM and the CC50 (NCI-H322M) was 16.9 µM. The GI50 (MDA-MB-435) was 1.63 µM, the CC50 (MDA-MB-435) was 6.2 µM and the GI50 (DU-145) was 2.22 µM. For the same compound, the CC50 (DU-145) was 22.8 µM, the GI50 (HL-60(TB)) was 1.15 µM and the CC50 (HL-60(TB)) was > 100 µM. It also gave a GI50 (M14) of 1.9 µM, a CC50 (M14) of 10.5 µM and a GI50 (UACC-62) of 2.03 µM. For the same compound, the CC50 (UACC-62) was 9.06 µM, the GI50 (BT-549) was 2.25 µM and the CC50 (BT-549) was 23.5 µM. For the same compound, the GI50 (TK-10) was 10.6 µM, the CC50 (TK-10) was 60.4 µM and the GI50 (SN12C) was 1.95 µM. For the same compound, the GI50 (HS 578T) was 2.22 µM, the CC50 (HS 578T) was > 100 µM and the GI50 (NCI-H226) was 6.47 µM. The CC50 (NCI-H226) was > 100 µM, the GI50 (MDA-MB-468) was 1.39 µM and the CC50 (MDA-MB-468) was 5.6 µM. The GI50 (NCI/ADR-RES) was 4.24 µM, the CC50 (NCI/ADR-RES) was > 100 µM and the activity at 10 µM (60 cancer cell lines) was 30.5%. For the same compound, the GI50 (MCF7) was 1.2 µM, the CC50 (MCF7) was 5.47 µM and the GI50 (UACC-257) was 1.91 µM. For the same compound, the CC50 (UACC-257) was 7.32 µM, the GI50 (OVCAR-4) was 1.96 µM and the CC50 (OVCAR-4) was 32.7 µM.

`Nc1nc(N)c2c(n1)NC(c1ccc(C(F)(F)F)cc1)CC(c1ccc(Nc3nc(NCCO)nc(Nc4ccc(Cl)cc4)n3)cc1)=N2` (stereo not shown) [33g] gave a GI50 (OVCAR-8) of 1.5 µM, a CC50 (OVCAR-8) of 5.75 µM and a GI50 (SR) of 1.46 µM. For the same compound, the CC50 (SR) was > 100 µM, the GI50 (NCI-H522) was 1.34 µM and the CC50 (NCI-H522) was 5.54 µM. For the same compound, the GI50 (RPMI-8226) was 1.51 µM, the CC50 (RPMI-8226) was > 100 µM and the GI50 (SF-539) was 1.56 µM. It also gave a CC50 (SF-539) of 5.68 µM, a GI50 (SNB-75) of 1.7 µM and a CC50 (SNB-75) of 9.06 µM. It also gave a GI50 (SNB-19) of 1.51 µM, a CC50 (SNB-19) of 5.76 µM and a GI50 (NCI-H322M) of 1.66 µM. For the same compound, the CC50 (NCI-H322M) was 5.63 µM, the GI50 (MDA-MB-435) was 1.4 µM and the CC50 (MDA-MB-435) was 5.3 µM. It also gave a GI50 (DU-145) of 1.51 µM, a CC50 (DU-145) of 5.33 µM and a GI50 (HL-60(TB)) of 1.28 µM. The CC50 (HL-60(TB)) was > 100 µM, the GI50 (M14) was 1.64 µM and the CC50 (M14) was 5.72 µM. It also gave a GI50 (UACC-62) of 1.68 µM, a GI50 (BT-549) of 1.57 µM and a CC50 (BT-549) of 6.34 µM. The GI50 (TK-10) was 1.78 µM, the CC50 (TK-10) was 5.63 µM and the GI50 (SN12C) was 1.76 µM. The CC50 (SN12C) was 6.35 µM, the GI50 (HS 578T) was 2.55 µM and the CC50 (HS 578T) was > 100 µM. The GI50 (NCI-H226) was 1.84 µM, the CC50 (NCI-H226) was 8.31 µM and the GI50 (MDA-MB-468) was 1.58 µM. It also gave a CC50 (MDA-MB-468) of 6.53 µM, a GI50 (NCI/ADR-RES) of 1.95 µM and an activity at 10 µM (60 cancer cell lines) of -44.8%. It also gave a GI50 (MCF7) of 1.26 µM, a GI50 (UACC-257) of 1.75 µM and a CC50 (UACC-257) of 5.82 µM. The GI50 (OVCAR-4) was 2.23 µM and the CC50 (OVCAR-4) was > 100 µM.

— publication PMC11012124, “Synthesis of Novel Triazine-Based Chalcones and 8,9-dihydro-7H-pyrimido[4,5-b][1,4]diazepines as Potential Leads in the Search of Anticancer, Antibacterial and Antifungal Agents” (International Journal of Molecular Sciences, 2024)
